Values quoted from earlier work, collected in patent publication US20050255076A1, “Therapeutic cream for dermatitis” (priority 2004, published 2005).

Conditions: in alcohol and in water

In the case of C[S+](C)[O-] [Dimethyl sulfoxide], the “Properties: solubility” value is given as “Soluble in alcohol and water”.
